US20110178016A1, “PULSE PARATHYROID HORMONE FOR TREATMENT OF THE HEM[…], STROMAL CELL LOSS, AND VASCULAR INJURY RESULTING FROM ACUTE EXPOSURE TO LETHAL RADIATION” (priority 2008, published 2011)
Entries after “also recorded” stand apart in the source; their conditions may differ.

Assays:
[1] = Serum PTH levels in mice after final dose (Mesoscale); assay type: in vivo; conditions: 400 mcg/kg PTH, final dose on day 28
Method: Bone marrow was analyzed for colony forming units (CFU) (FIGS. 9A and 9B), hematopoietic stem cell content. Serum was analyzed for PTH levels on the final day of the study to determine the duration of detectable PTH in the serum following the final dose.

[2] = tested on: cynomolgus monkeys; test: Toxicity studies of a 21 day course of PTH in monkeys (cardiac monitoring, serum calcium, kidney MRI); assay type: in vivo
Method: (§1) Two cynomolgus monkeys (hereafter referred to as CYNOs) were treated with a 21 day course of daily subcutaneous PTH at either 100 mcg/kg (monkey 7801) or 50 mcg/kg (monkey 7872). Hematopoietic outcome measures included:
(d) MRI of the kidneys upon completion of the 21 day course.
Three cynomolgus monkeys (hereafter referred to as CYNOs) were treated with a 21 day course of daily subcutaneous PTH at either 50 ug/kg (7872), 100 ug/kg (7801), or 250 ug/kg (7876).
Two were irradiated (7801 and 7875) at a lethal dose of 682 cGy and administered 100 ug/kg. Of note, 7801 underwent a washout period prior to undergoing irradiation and subsequent PTH therapy
Outcome measures included:
(a) continuous cardiac monitoring and serum calcium
(e) MRI of the kidneys upon completion of the 21 day course.

[3] = PTH levels after subcutaneous administration in transplanted monkeys; assay type: in vivo, nonhuman primates (monkeys); conditions: 5 micrograms/kg subcutaneously
From the text: (§2) Bone marrow transplant studies by Calvi and colleagues characterized this process in the syngeneic mouse model of osteoblastic activation. To see if PTH could enhance allogeneic stem cell engraftment in nonhuman primates (monkeys), donors were MHC mismatched based on recipient proliferation against donor cells in the mixed lymphocyte culture and by disparity at the class I antigen, Bw6. This disparity permitted tracking of Bw6+ donor cells following transplantation into Bw6-recipients. Eight control recipients were conditioned with thymoglobulin, rituxan, fludarabine, and melphalan. Six animals received the conditioning regimen supplemented with parathyroid hormone beginning on the first day of the conditioning regimen and administered daily at a dose of 5 micrograms/kg subcutaneously. An allogeneic stem cell transplant consisting of 2−4×10^6 CD34+cells/kg was administered on day 0. Outcome measures included PTH levels, CBCs, and donor engraftment via flow cytometry.

[4] = tested on: mice exposed to lethal radiation (772 cGy); test: Survival of mice after lethal irradiation (772 cGy) with PTH treatment; assay type: in vivo, B6 mice; conditions: for Thirty day survival: no treatment 50%; for 49 day survival: vehicle 60%
Method: In a study of 98 mice exposed to lethal irradiation, half received placebo (saline) and half received daily PTH 80 mcg/kg/day for 28 days. There was a survival advantage in the PTH treated group, 24/49 survived vs placebo, 16/49, (95% CI, 0.7707, 2.462).
80 ug/day PTH therapy followed lethal irradiation (772 cGy) exposure. 49 mice were treated with daily PTH (80 mcg/kg/d sc×28 days) 24 hours following a lethal radiation exposure of 772 cGy and compared to 49 vehicle treated control animals. Outcome measures included platelet counts, survival, and other hematopoietic studies. When censoring for technical deaths, 46 animals were analyzed in the placebo group (daily saline injections) with 47 analyzed from the daily PTH 80 mcg/kg/day treatment. […] Thirty-day survival in the placebo group was 18/46 or 39%. Of the PTH treated animals 26/47 animals survived (55%, p=0.2).
In another set of dose finding experiments, the same radiation exposure was used (772 cGy). Three treatment groups were studied: (1) untreated (no placebo, n=8), (2) treated with 200 mcg/kg PTH daily beginning 24 hours after radiation exposure, n=12, (3) treated with 200 mcg/kg PTH twice daily beginning 24 hours after radiation exposure, n=12.
Comparison was made of animals treated with PTH, 200 ug/day, 200 ug twice daily (BID) vs those receiving no PTH treatment following lethal irradiation (772 cGy).
Three groups of B6 mice underwent irradiation.
Group 1 received no treatment, n=8.
Group 2 received PTH, 200 micrograms/kg/day, n=10, first begun 24 hours following radiation exposure to 772 cGy and continued for 28 days.
Group 3 received the same duration of PTH but instead was treated twice daily, 200 micrograms/kg/day BID for a daily total dose of 400 mcg/kg/day, n=12.
Four cohorts of B6 mice were irradiated to uniform, total body, midline tissue dose at a dose rate of 80+2.5 cGy/min to a dose of 772 cGy.
Group 1 received vehicle control (saline) treatment×28 days, beginning 24 hours after radiation, n=10.
Group 2 received PTH, 400 micrograms/kg/day, n=10, first begun 24 hours following radiation exposure to 772 cGy and continued for 28 days.
Group 3 received PTH, 1000 micrograms/kg/day, n=10, 24 hours following radiation, and then 400 mcg/kg/day for 7 days.
Group 4 received PTH, 400 micrograms/kg/day, n=10, 24 hours following radiation, and continued for 7 days.

[5] = tested on: monkeys; conditions: prolonged daily dosing, 4 months-2 years; cited from earlier work
[6] = tested on: macaque monkeys following chemo-ablative therapy and MHC mis-matched allogeneic stem cell transplant; test: Daily PTH after chemo-ablative conditioning and MHC mismatched allogeneic stem cell transplant; assay type: in vivo
From the text: A previously unrecognized role for PTH on mitigation of myelosuppression in macaque monkeys is described. Following chemo-ablative therapy and MHC mis-matched allogeneic stem cell transplant, animals were randomized to daily PTH treatment (5 mcg/kg/day subcutaneously) or placebo. […] Following myeloablation, PTH may act to increase megakaryopoiesis through increased production of HSC.
as §2

[7] = Serum PTH levels for PK analysis in non-irradiated monkeys; assay type: in vivo, cynomolgus monkeys; conditions: non-irradiated monkeys 7801 (100 mcg/kg/d) and 7872 (50 mcg/kg/d), days 1 and 18
Method: PTH becomes undetectable by 4-6 hours after dosing, despite extremely high doses of PTH.
as §1
(c) serum PTH levels; and […]

[8] = CYNOs, 21 day course, 100 mcg/kg or 50 mcg/kg
[9] = highest dose, 250 ug/kg, administered for 21 days
[10] = macaques, PTH 5 mcg/kg/day sc, statistical significance by 4 weeks

## CC[C@H](C)[C@H](NC(=O)[C@H](CCC(=O)O)NC(=O)[C@H](CO)NC(=O)[C@@H](NC(=O)[C@@H](N)CO)C(C)C)C(=O)N[C@@H](CCC(N)=O)C(=O)N[C@@H](CC(C)C)C(=O)N[C@@H](CCSC)C(=O)N[C@@H](Cc1cnc[nH]1)C(=O)N[C@@H](CC(N)=O)C(=O)N[C@@H](CC(C)C)C(=O)NCC(=O)N[C@@H](CCCCN)C(=O)N[C@@H](Cc1cnc[nH]1)C(=O)N[C@@H](CC(C)C)C(=O)N[C@@H](CC(N)=O)C(=O)N[C@@H](CO)C(=O)N[C@@H](CCSC)C(=O)N[C@@H](CCC(=O)O)C(=O)N[C@@H](CCCN=C(N)N)C(=O)N[C@H](C(=O)N[C@@H](CCC(=O)O)C(=O)N[C@@H](Cc1c[nH]c2ccccc12)C(=O)N[C@@H](CC(C)C)C(=O)N[C@@H](CCCN=C(N)N)C(=O)N[C@@H](CCCCN)C(=O)N[C@@H](CCCCN)C(=O)N[C@@H](CC(C)C)C(=O)N[C@@H](CCC(N)=O)C(=O)N[C@@H](CC(=O)O)C(=O)N[C@H](C(=O)N[C@@H](Cc1cnc[nH]1)C(=O)N[C@@H](CC(N)=O)C(=O)N[C@@H](Cc1ccccc1)C(=O)O)C(C)C)C(C)C [PTH, Teriparatide]
[1]
  PTH in sera after final PTH dose: some persistence of PTH at 24 hours
  time of return of serum PTH to baseline after final dose: 48 h
[2]; 250 ug/kg up to 19 days, non-irradiated cynomolgus monkey
  tolerability: well tolerated
[2]; [8]
  Cardiac monitoring: some shortening of the Qt segment but no life threatening arrythmias
  serum calcium peak: ≤ 11.5 mg/dL
  time for serum calcium to return to normal range after dosing: 6 to 10 h
[2]; [9]
  T wave height and ST-intervals over time: some decrease
  arrhythmias: No life-threatening arrhythmias
[2]; irradiated and non-irradiated monkeys, doses comparable to doses to ameliorate radiation damage
  tolerance in toxicity studies: tolerated
[2]; irradiated monkeys 7875 and 7801, 100 ug/kg, exception day 19 for 7801
  serum calcium levels: normal calcium levels except one timepoint
[2]; monkeys 7801 (100 mcg/kg) and 7872 (50 mcg/kg), 21 day course
  BUN or creatinine: No change
[2]; monkeys 7801 (100 mcg/kg) and 7872 (50 mcg/kg), after 21 day course
  MRI examination of the kidneys: no cystic degeneration or tumors
[2]; non-irradiated animal 7876, 250 ug/kg, 21st day of dosing, with some somnolent behavior
  serum calcium level: 17 mg/dL
[2]; three non-irradiated cynomolgus monkeys, 50, 100, 250 ug/kg, calcium slightly elevated
  toxicity during the first 20 days of dosing: did not experience toxicity
[3]
  time by which PTH levels were undetectable: ≤ 4 h
[3]; monkey, in vivo, sc, read-out: time of peak PTH levels after administration (converted)
  Tmax: 30 min
[4]; 98 mice, lethal irradiation, PTH 80 mcg/kg/day for 28 days, placebo 16/49
  survival (survived/total): 24/49
[4]; 772 cGy, 200 mcg/kg experiments, LD50/30 changed to LD25/30
  reduction in mortality: 25%
[4]; 772 cGy, PTH 80 mcg/kg/day vs placebo
  thrombocytopenia duration or nadir: no significant difference
[4]; 772 cGy, PTH 200 mcg/kg daily for 28 days (8/12)
  Thirty day survival: 67%
[4]; 772 cGy, PTH 200 mcg/kg twice daily for 28 days (9/12)
  Thirty day survival: 75%
[4]; 772 cGy, PTH 400 mcg/kg/day x 7 days (Group 4), p=0.02
  49 day survival: 100%
[4]; 772 cGy, PTH 400 micrograms/kg/day x 28 days (Group 2, 9/10), p=0.05
  49 day survival: 90%
[4]; 772 cGy, PTH 1000 micrograms/kg/day then 400 mcg/kg/day for 7 days (Group 3, 9/10), p=0.05
  49 day survival: 90%
[4]; 1000 mcg/kg dose group, control survivors 3/6
  preputial inflammation and abscess among survivors: ⅙
[4]; 7 day course of PTH 400 mcg/kg/day following an LD50/30 radiation exposure
  30-day survival: 100%
[4]; daily or twice doses of PTH, lethal irradiation dose expected to result in 50% death of mice (summary)
  survival: 100%
[4]; other PTH groups (400 mcg/kg/day x 28 days or x 7 days), control survivors 3/6
  preputial inflammation and abscess / infection among survivors: None were observed; also recorded: prevents infection
[5]
  doses at which toxicity was observed: > 0.04 mg/kg
[6]; PTH group vs control group
  hemoglobin (serial CBCs): no significant difference
[6]; macaques, PTH 5 mcg/kg/day sc
  engrafting donor B cells: significantly increased
  host (recipient) T cells: no significant increase; also recorded: little or no effect
  host or donor myeloid lineage CD14 or CD11b+ cells: no significant increase
[6]; macaques, PTH 5 mcg/kg/day sc vs control
  engrafting donor T cells (CD4 and CD8 subsets): significant increases; also recorded: significantly increased; also recorded: increased over control animals
[6]; [10]
  engrafting donor CD34+ cells: significantly increased; also recorded: significant increases
  host CD34+ stem cells: significantly increased; also recorded: significant increases
[6]; macaques, PTH 5 mcg/kg/day subcutaneously vs untreated controls, first observed 7 days after PTH therapy
  platelet counts in peripheral blood: statistically significant increase; also recorded: increased levels of platelets
[6]; macaques, PTH 5 micrograms/kg sc daily
  recipient granulocytes or natural killer cells: No effect
[6]; monkeys 7150 and 7154, 5 weeks after PTH treatment
  iliac crest bone biopsy findings after vs before PTH treatment: increased cortical bone, increased osteoblasts, and loss of adiposity; also recorded: adiposity was reduced, and cortical bone formation increased
[7]
  time after dosing by which PTH becomes undetectable in serum: 4 to 6 h
